A word on the IC50: it is the concentration needed to halve the response being measured.

One assay addresses human CD38 (Homo sapiens (Human), UniProt P28907). As to the kind of experiment: NAD+ cyclase activity assay with human recombinant CD38 protein. In kind it is biochemical. As to conditions: 1.9 nM human CD38, 15.8 μM e-NAD substrate, fluorescence read-out. As for the experimental part:
(§1) Example 5: NAD^+ Cydase Activity Assay with Human or Mouse Recombinant CD38 Protein
(§2) The following assay was used to determine the ability of compounds of the invention to inhibit the hydrolysis of NAD^+ by the human or mouse enzyme, CD38.
(§3) Reaction buffer: 40 mM HEPES/NaOH pH 7.5, 250 mM sucrose, 0.01% Tween
(§4) Final concentrations: 0.6 nM mouse CD38 (4947-AC, Bio-Techne GmbH) 1.9 nM human CD38 (AVI2404, Bio-Techne GmbH)
(§5) Substrate: 15.8 μM Nicotinamide 1,N6-ethenoadenine dinucleotide (E-NAD)
(§6) Read-out: Fluorescence intensity (extinction 300 nm/emission 410 nm)
(§7) Required reaction buffer, required CD38 concentration in reaction buffer and required e-NAD concentration in reaction buffer were prepared. Thereafter, 8 μL of CD38 in reaction buffer were added to High Control and compound concentration wells in 384 well plate (Corning #4514, 384 well, nonbinding surface, low volume, round bottom) and 8 μL of reaction buffer to Low Control. Compound dilutions were transferred via pintool technology that transfers 42.5 nL compound dilutions (12-point dose-response with factor three dilutions in 100% DMSO) well-to-well. Plate was subsequently shaken for 15 s at 1450 rpm and sealed for incubation for 30 min at room temperature. Thereafter, 2 μL of e-NAD in reaction buffer were added with Integra Voyager. After shaking for 15 s at 1450 rpm, plate was sealed, and assay signal was measured continuously with PHERAstar® fluorescence intensity module (extinction 300 nm/emission 410 nm).
(§8) Dose-response curves were constructed using twelve-point factor three dilutions in triplicates per plate. High control (full enzyme activity) was set to assay signal of CD38 and e-NAD in presence of vehicle (DMSO) and Low control (full enzyme inhibition) was set to assay signal of e-NAD and vehicle (DMSO) in absence of CD38. For data analysis, fluorescent signal of traces corresponding to each compound concentration and High and Low control was monitored over time. Each run, High Control (full enzyme activity) was fitted to Linear equation via GraphPad Prism to determine CD38 activity from the slope and determine the time interval of linear phase of reaction to account for minor fluctuations. Thereafter, slopes of all compound concentrations were determined via fitting to same linear equation (GraphPad Prism) over the same time interval as determined for High control. Percentage inhibition was calculated via normalization to High and Low Control via the equation: %−inhibition=100*(1−((Sample−Low control)/(High control−Low control))) Half maximal inhibitory concentration (IC50) values are yielded from the inflection point of the corresponding curve by fitting of resulting percentage inhibition values to standard equation (4 Parameter Logistic Model or Sigmoidal Dose-Response Model) via Excel Fit. Unless otherwise stated, fitting of curves was fixed to 100%-inhibition and unlocked for 0%-inhibition.

For the next assay, the target named is mouse CD38 (Mus musculus (Mouse), UniProt P56528). As to the kind of experiment: NAD+ cyclase activity assay with mouse recombinant CD38 protein. Type of assay: biochemical. As to conditions: 0.6 nM mouse CD38, 15.8 μM e-NAD substrate, fluorescence read-out. As for the experimental part:
as §1, §2, §3, §4, §5, §6, §7, §8

SMILES strings stand for the structures. Where a name gives a salt, the structure may show the parent alone. Some results are limits rather than exact numbers.

human CD38, sequence (P28907 whole entry): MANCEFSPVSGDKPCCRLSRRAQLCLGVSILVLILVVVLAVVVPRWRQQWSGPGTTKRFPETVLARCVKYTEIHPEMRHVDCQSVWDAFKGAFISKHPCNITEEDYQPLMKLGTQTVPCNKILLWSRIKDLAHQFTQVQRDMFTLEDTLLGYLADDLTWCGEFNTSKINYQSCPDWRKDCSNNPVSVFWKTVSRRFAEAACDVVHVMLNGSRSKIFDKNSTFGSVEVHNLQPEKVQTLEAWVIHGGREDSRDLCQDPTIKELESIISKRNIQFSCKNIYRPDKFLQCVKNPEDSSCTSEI
mouse CD38, sequence (P56528 whole entry): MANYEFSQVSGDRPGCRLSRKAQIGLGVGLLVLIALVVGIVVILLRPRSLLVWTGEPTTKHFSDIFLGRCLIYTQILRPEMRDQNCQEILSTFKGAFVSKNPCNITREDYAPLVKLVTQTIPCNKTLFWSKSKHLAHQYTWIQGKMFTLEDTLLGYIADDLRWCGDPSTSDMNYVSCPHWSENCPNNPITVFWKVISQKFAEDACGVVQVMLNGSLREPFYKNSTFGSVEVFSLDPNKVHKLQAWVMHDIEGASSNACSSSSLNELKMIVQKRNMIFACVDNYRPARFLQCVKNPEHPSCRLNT

`Cc1cc(C(=O)NC2CCOC(C)C2)nc(-n2ccnc2)c1` (stereo not shown) [Compound 30A, 6-(1H-Imidazol-1-yl)-4-methyl-N-(2-methyltetrahydro-2H-pyran-4-yl)picolinamide]: the values for the IC50 on human CD38 and on mouse CD38 were 30 to 100 nM and 1 to 10 nM, respectively.

Regarding `Cc1cc(C(=O)NC2C3COCC32)nc(-n2ccnc2)c1` (stereo not shown) [Compound 31A, N-(3-Oxabicyclo[3.1.0]hexan-6-yl)-6-(1H-imidazol-1-yl)-4-methylpicolinamide], the IC50 lay within 30 to 100 nM at human CD38 and 1 to 10 nM at mouse CD38.

For `Cc1cc(C(=O)NC2CCOCC2)nc(-n2ccnc2)c1` [Compound 32A, 6-(1H-Imidazol-1-yl)-4-methyl-N-(tetrahydro-2H-pyran-4-yl)picolinamide], the values for the IC50 on human CD38 and at mouse CD38 were 30 to 100 nM and 1 to 10 nM, respectively.

Regarding `Cc1cc(C(=O)NC2CCCCCC2)nc(-n2ccnc2)c1` [Compound 34A, N-Cycloheptyl-6-(1H-imidazol-1-yl)-4-methylpicolinamide], the IC50 is less than 30 nM at human CD38 and 1 to 10 nM at mouse CD38.

Turning to `Cc1cc(C(=O)NC2CCC(F)(F)C2)nc(-n2ccnc2)c1` (stereo not shown) [Compound 35A, N-(3,3-Difluorocyclopentyl)-6-(1H-imidazol-1-yl)-4-methylpicolinamide], the IC50 is less than 30 nM at human CD38 and 1 to 10 nM on mouse CD38.

With `Cc1cc(C(=O)NC2CCCS(=O)(=O)C2)nc(-n2ccnc2)c1` (stereo not shown) [Compound 36A, N-(1,1-Dioxidotetrahydro-2H-thiopyran-3-yl)-6-(1H-imidazol-1-yl)-4-methylpicolinamide], the IC50 at human CD38 is 100 to 1000 nM; at mouse CD38 it was 1 to 10 nM.

Turning to `Cc1cc(C(=O)N[C@H]2CCOC2)nc(-n2ccnc2)c1` [Compound 38A, (S)-6-(1H-Imidazol-1-yl)-4-methyl-N-(tetrahydrofuran-3-yl)picolinamide], the IC50 on human CD38 fell in the range of 100 to 1000 nM; on mouse CD38, 1 to 10 nM.

Take `Cc1cc(C(=O)N[C@H]2CCNC2)nc(-n2ccnc2)c1` [Compound 41A, (S)-6-(1H-Imidazol-1-yl)-4-methyl-N-(pyrrolidin-3-yl)picolinamide hydrochloride]: the IC50 is more than 1000 nM on human CD38 and more than 100 nM at mouse CD38.

With `Cc1cc(C(=O)N[C@@H]2CCOC2)nc(-n2ccnc2)c1` [Compound 42A, (R)-6-(1H-Imidazol-1-yl)-4-methyl-N-(tetrahydrofuran-3-yl)picolinamide], the IC50 fell in the range of 30 to 100 nM at human CD38 and 1 to 10 nM on mouse CD38.

For `Cc1cc(C(=O)N[C@@H]2CCN(C(=O)OC(C)(C)C)C2)nc(-n2ccnc2)c1` [Compound 43A, tert-Butyl (R)-3-(6-(1H-imidazol-1-yl)-4-methylpicolinamido)pyrrolidine-1-carboxylate], the IC50 is less than 30 nM on human CD38 and 1 to 10 nM at mouse CD38.

Take `Cc1cc(C(=O)N[C@@H]2CCCOC2)nc(-n2ccnc2)c1` [Compound 44A, (R)-6-(1H-Imidazol-1-yl)-4-methyl-N-(tetrahydro-2H-pyran-3-yl)picolinamide]: the IC50 at human CD38 was less than 30 nM; at mouse CD38 it was less than 1 nM.

Consider `Cc1cc(C(=O)N[C@H]2CCCOC2)nc(-n2ccnc2)c1` [Compound 45A, (S)-6-(1H-Imidazol-1-yl)-4-methyl-N-(tetrahydro-2H-pyran-3-yl)picolinamide], for which the results for the IC50 at human CD38 and on mouse CD38 were 100 to 1000 nM and 1 to 10 nM, respectively.

For the compound `Cc1cc(C(=O)N[C@H]2CCN(S(C)(=O)=O)C2)nc(-n2ccnc2)c1` [Compound 46A, (S)-6-(1H-imidazol-1-yl)-4-methyl-N-(1-(methylsulfonyl)pyrrolidin-3-yl)picolinamide], the IC50 on human CD38 was in the range of 100 to 1000 nM; at mouse CD38, 1 to 10 nM.

Turning to `Cc1cc(C(=O)N[C@H]2CCCN(C(=O)OC(C)(C)C)C2)nc(-n2ccnc2)c1` [Compound 47A, tert-Butyl (S)-3-(6-(1H-imidazol-1-yl)-4-methylpicolinamido)piperidine-1-carboxylate], the IC50 was in the range of 100 to 1000 nM on human CD38 and 1 to 10 nM at mouse CD38.

As to `Cc1cc(C(=O)N[C@H]2CCCNC2)nc(-n2ccnc2)c1` [Compound 48A, (S)-6-(1H-Imidazol-1-yl)-4-methyl-N-(piperidin-3-yl)picolinamide dihydrochloride], the IC50 is more than 1000 nM on human CD38 and 10 to 100 nM on mouse CD38.

As for `Cc1cc(C(=O)N[C@@H]2CCCN(C(=O)OC(C)(C)C)C2)nc(-n2ccnc2)c1` [Compound 49A, tert-Butyl (R)-3-(6-(1H-imidazol-1-yl)-4-methylpicolinamido)piperidine-1-carboxylate], the IC50 on human CD38 was 30 to 100 nM; on mouse CD38 it was 1 to 10 nM.

Take `Cc1cc(C(=O)N[C@H]2CCCN(S(C)(=O)=O)C2)nc(-n2ccnc2)c1` [Compound 50A, (S)-6-(1H-Imidazol-1-yl)-4-methyl-N-(1-(methylsulfonyl)piperidin-3-yl)picolinamide]: the half-maximal inhibitory concentration (IC50) on human CD38 lay within 100 to 1000 nM; at mouse CD38, 1 to 10 nM.

Take `Cc1cc(C(=O)N[C@@H]2CCCNC2)nc(-n2ccnc2)c1` [Compound 51A, (R)-6-(1H-Imidazol-1-yl)-4-methyl-N-(piperidin-3-yl)picolinamide dihydrochloride]: the IC50 on human CD38 is more than 1000 nM; at mouse CD38, more than 100 nM.

Turning to `Cc1cc(C(=O)N[C@@H]2CCNC2)nc(-n2ccnc2)c1` [Compound 52A, (R)-6-(1H-Imidazol-1-yl)-4-methyl-N-(pyrrolidin-3-yl)picolinamide dihydrochloride], the IC50 on human CD38 was more than 1000 nM; at mouse CD38 it was more than 100 nM.

Consider `Cc1cc(C(=O)N[C@@H]2CCN(S(C)(=O)=O)C2)nc(-n2ccnc2)c1` [Compound 53A, (R)-6-(1H-Imidazol-1-yl)-4-methyl-N-(1-(methylsulfonyl)pyrrolidin-3-yl)picolinamide], for which the IC50 on human CD38 lay in the range of 100 to 1000 nM; on mouse CD38, 1 to 10 nM.

With `Cc1cc(C(=O)N[C@@H]2CCCN(S(C)(=O)=O)C2)nc(-n2ccnc2)c1` [Compound 54A, (R)-6-(1H-Imidazol-1-yl)-4-methyl-N-(1-(methylsulfonyl)piperidin-3-yl)picolinamide], the IC50 lay in the range of 30 to 100 nM on human CD38 and 1 to 10 nM at mouse CD38.

On to `Cc1cc(C(=O)N[C@H]2CCS(=O)(=O)C2)nc(-n2ccnc2)c1` [Compound 55A, (S)—N-(1,1-Dioxidotetrahydrothiophen-3-yl)-6-(1H-imidazol-1-yl)-4-methylpicolinamide], for which the IC50 at human CD38 fell in the range of 100 to 1000 nM; at mouse CD38, 1 to 10 nM.

On to `Cc1cc(C(=O)N[C@@H]2CCCN(C)C2=O)nc(-n2ccnc2)c1` [Compound 56A, (R)-6-(1H-Imidazol-1-yl)-4-methyl-N-(1-methyl-2-oxopiperidin-3-yl)picolinamide], for which the IC50 at human CD38 was more than 1000 nM; at mouse CD38 it was more than 100 nM.

For `Cc1cc(C(=O)N[C@@H]2CCCS(=O)(=O)C2)nc(-n2ccnc2)c1` [Compound 57A, (R)—N-(1,1-Dioxidotetrahydro-2H-thiopyran-3-yl)-6-(1H-imidazol-1-yl)-4-methylpicolinamide], the IC50 was 30 to 100 nM at human CD38 and 1 to 10 nM on mouse CD38.

Regarding `Cc1cc(C(=O)N[C@@H]2CCCNC2=O)nc(-n2ccnc2)c1` [Compound 58A, (R)-6-(1H-Imidazol-1-yl)-4-methyl-N-(2-oxopiperidin-3-yl)picolinamide], the results for the IC50 on human CD38 and on mouse CD38 were more than 1000 nM and 10 to 100 nM, respectively.

For the compound `Cc1cc(C(=O)N[C@@H]2CCCN(C)C2)nc(-n2ccnc2)c1` [Compound 59A, (R)-6-(1H-Imidazol-1-yl)-4-methyl-N-(1-methylpiperidin-3-yl)picolinamide], the IC50 is more than 1000 nM at human CD38 and 10 to 100 nM on mouse CD38.

Consider `Cc1cc(C(=O)N[C@H]2CCCNC2=O)nc(-n2ccnc2)c1` [Compound 60A, (S)-6-(1H-Imidazol-1-yl)-4-methyl-N-(2-oxopiperidin-3-yl)picolinamide], for which the IC50 on human CD38 is 100 to 1000 nM; at mouse CD38, 1 to 10 nM.

As for `Cc1cc(C(=O)NC2CCN(S(C)(=O)=O)CC2)nc(-n2ccnc2)n1` [Compound 61A, 2-(1H-Imidazol-1-yl)-6-methyl-N-(1-(methylsulfonyl)piperidin-4-yl)pyrimidine-4-carboxamide], the IC50 on human CD38 is less than 30 nM; at mouse CD38 it was less than 1 nM.

`O=C(N[C@@H]1CCCOC1)c1cc(C(F)(F)F)cc(-n2ccnc2)n1` [Compound 62A, (R)-6-(1H-imidazol-1-yl)-N-(tetrahydro-2H-pyran-3-yl)-4-(trifluoromethyl)picolinamide]: the results for the IC50 on human CD38 and on mouse CD38 were less than 30 nM and 1 to 10 nM, respectively.

For the origin of these results see US20250326739A1, “CD38 MODULATORS AND USES THEREOF” (Aeovian Pharmaceuticals, Inc., priority 2022, published 2025).
